In paper PMC10005056, “Design and Synthesis of New Acyl Urea Analogs as Potential σ1R Ligands” (Molecules, 2023):

Experiments:
[1] = biological target: σ1R (Homo sapiens, UniProt Q99720); assay: In vitro σ1R binding assay (radioligand displacement, NIMH PDSP); conditions: read-out: In Vitro σ1R Affinity (Ki)
Source text: Online Molinspiration and Osiris property explorer were used to calculate/predict drug-like molecular properties for the target compounds. These studies involved retrieving the σ1R crystal structure (5HK1) with embedded ligand (PD144418), preparation (e.g., H2O and ligand removal), and docking the target molecules via the PyRx and AutoDock Vina suite. […] Synthetically, a variety of approaches for obtaining acyl ureas were reviewed and the most feasible conditions were attempted with limited success—our goal was to obtain our compounds using the shortest and most cost-effective approach. […] We therefore slightly modified Stokes’ conditions by preparing the N-(phenoxycabonyl)benzamide intermediate from phenol and benzoyl isocynate. Coupling the intermediate with amines or amides or thioamides via simple nucleophilic displacement afforded our series of N-acyl ureas plus N-acyl thioureas (Table 1) in good yields (>64%). To confirm our pharmacological assumptions regarding these molecules behaving like PD144418, the compounds were sent to the National Institute of Mental Health’s Psychoactive Drug Screening Program and evaluated in radioligand displacement assays to determine their in vitro σ1R affinities or Ki values.
Computational (kcal/mol) versus in vitro (μM, from the National Institute of Mental Health Psychoactive Drug Screening Program or NIMH-PDSP [https://pdsp.unc.edu/pdspweb/ (accessed 28 February 2023)] σ1R binding affinity data are illustrated in Table 4.
Sigma-1 binding affinity experiments (Ki determinations) were conducted at the National Institute of Mental Health’s Psychoactive Drug Screening Program (NIMH PDSP). Sigma-1 receptor binding assay protocol details (radioligand displacement conditions, etc.) are available at https://pdsp.unc.edu/pdspweb/content/PDSP%20Protocols%20II%202013-03-28.pdf (accessed 28 February 2023).

Sequence of σ1R (Q99720 whole entry, species assumed): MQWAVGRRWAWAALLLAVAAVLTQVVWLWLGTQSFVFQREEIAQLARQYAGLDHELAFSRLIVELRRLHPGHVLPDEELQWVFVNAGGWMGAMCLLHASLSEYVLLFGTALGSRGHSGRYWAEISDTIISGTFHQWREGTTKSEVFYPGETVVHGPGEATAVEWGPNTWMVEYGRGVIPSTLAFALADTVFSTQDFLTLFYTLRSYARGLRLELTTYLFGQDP

Row | Structure (SMILES) | Ki [1] | melting point
1 | Cc1cc(NC(=O)NC(=O)c2ccccc2)no1 [Compound 1, N-((5-Methylisoxazol-3-yl)carbamoyl)benzamide] | > 10 µM | –
2 | O=C(NC(=O)c1ccccc1)Nc1ccc2[nH]ccc2c1 [Compound 2] | > 10 µM | 220 to 223 °C
3 | O=C(NC(=O)c1ccccc1)NC(=S)c1ccccn1 [Compound 3, N-((Pyridine-2-carbonothioyl)carbamoyl)benzamide] | > 10 µM | 180 to 182 °C
4 | Cc1cc2cc(NC(=O)NC(=O)c3ccccc3)ccc2[nH]1 [Compound 4, N-((2-Methyl-1H-indol-5-yl)carbamoyl)benzamide] | > 10 µM | 209 to 211 °C
5 | O=C(NC(=O)N1CCN(c2ncccn2)CC1)c1ccccc1 [Compound 5, N-Benzoyl-4-(pyrimidin-2-yl)piperazine-1-carboxamide] | > 10 µM | 145 to 147 °C
6 | O=C(NC(=O)N1CCN(c2ccncc2)CC1)c1ccccc1 [Compound 6, N-Benzoyl-4-(pyridin-4-yl)piperazine-1-carboxamide] | > 10 µM | 161 to 163 °C
7 | O=C(NC(=O)N1CCC(O)CC1)c1ccccc1 [Compound 7] | > 10 µM | 170 to 172 °C
8 | Cc1ccc(N2CCN(C(=O)NC(=O)c3ccccc3)CC2)cc1 [Compound 8, N-Benzoyl-4-(p-tolyl)piperazine-1-carboxamide] | > 10 µM | 158 to 160 °C
9 | CC(C)(C)OC(=O)N1CCC(NC(=O)NC(=O)c2ccccc2)CC1 [Compound 9, Tert-butyl 4-(3-benzoylureido)piperidine-1-carboxylate] | > 10 µM | 164 to 166 °C
10 | O=C(NC(=O)c1ccccc1)Nc1nc2ccccc2o1 [Compound 10, N-(Benzo[d]oxazol-2-ylcarbamoyl)benzamide] | 2.18 µM | 180 to 182 °C
11 | Cc1c(C)c2c(c(C)c1O)CCC(C)(C(=O)NC(=O)NC(=O)c1ccccc1)O2 (stereo not shown) [Compound 11, N-(Benzoylcarbamoyl)-6-hydroxy-2,5,7,8-tetramethylchromane-2-carboxamide] | > 10 µM | 155 to 157 °C
12 | COc1cc(C(=S)NC(=O)NC(=O)c2ccccc2)ccc1O [Compound 12, N-((4-Hydroxy-3-methoxyphenylcarbonothioyl)carbamoyl) benzamide] | 9.54 µM | 176 to 177 °C
13 | Cc1cc(C)nc(NC(=O)NC(=O)c2ccccc2)n1 [Compound 13, N-((4,6-Dimethylpyrimidin-2-yl)carbamoyl)benzamide] | > 10 µM | 183 to 185 °C
14 | O=C(NC(=O)c1ccccc1)Nc1cnc2ccccc2c1 [Compound 14, N-(Quinolin-3-ylcarbamoyl)benzamide] | > 10 µM | 233 to 236 °C
15 | O=C(NC(=O)c1ccccc1)Nc1cc2ccccc2cn1 [Compound 15, N-(Isoquinolin-3-ylcarbamoyl)benzamide] | > 10 µM | 237 to 238 °C
16 | O=C(NC(=S)Nc1cc2ccccc2cn1)c1ccccc1 [Compound 16, N-(Isoquinolin-3-ylcarbamothioyl)benzamide] | > 10 µM | 162 to 165 °C
